According to patent US10633394B2, “Heterocyclic derivatives and use thereof” (C & C RESEARCH LABORATORIES, priority 2014, dated 2020):

Tests used:
Format in all cases: cell-based
NCI-N87 = assay: Cell growth inhibition assay (CellTiter-Glo), stomach cancer cell line NCI-N87; conditions: Homo sapiens; NCI-N87 cells, 96 hours
Experimental: (§1) The inhibitory effects of the compounds of the present invention against the growth of cancer cells were evaluated as shown below. The cancer cell lines including stomach cancer cell line (NCI-N87) and breast cancer cell line (MDA-MB-468) were cultured under the protocol provided by each supplier. Each type of cells to be used in experiments was sub-cultured in a 96-well plate by counting the exact number of cells using Tali™ Image-based Cytometer (Life Technologies). In a 96-well plate, NCI-N87 was employed with 5,000 cells/well; and MDA-MB-468 was employed with 10,000 cells/well. The cells were treated with the compounds listed in Examples which were diluted in various concentrations. Upon completion of the compounds treatment, NCI-N87 cells were cultured at 37° C. under 5% CO2 for 96 hours, and MDA-MB-468 cells were cultured at 37° C. in air for 96 hours. Subsequently, the cells were observed under microscope and drug precipitation and particular findings were investigated and recorded. And then, the 96-well plate was placed at room temperature for 30 minutes, added with 20 μL/well of CellTiter-Glo solution (Cat No. G7573, Promega) and shaken for 10 minutes, followed by being subjected to the measurement using PHERAstar™ microplate reader (BMG LABTECH) according to the supplier's general luminometer protocol. Wells where only culture liquid added without cell plating were used as a negative control, whereas wells where culture liquid containing 0.1% DMSO instead of the compounds listed in Examples were used as a positive control.

MDA-MB-468 = assay: Cell growth inhibition assay (CellTiter-Glo), breast cancer cell line MDA-MB-468; conditions: Homo sapiens; MDA-MB-468 cells, 96 hours
Experimental: as §1

STAT3 = target: T1, STAT3 (Homo sapiens, UniProt P40763); assay: STAT3 reporter gene (luciferase) assay in LNCaP stable cell line stimulated with IL-6; conditions: LNCaP stable cell line (pSTAT3-TA-luc), IL-6 10 ng/mL, 24 hours
T1 construct: plasmid pSTAT3-TA-luc), which contains a stably operating STAT3 promoter; endogenous in cells
T1 sequence (P40763 whole entry): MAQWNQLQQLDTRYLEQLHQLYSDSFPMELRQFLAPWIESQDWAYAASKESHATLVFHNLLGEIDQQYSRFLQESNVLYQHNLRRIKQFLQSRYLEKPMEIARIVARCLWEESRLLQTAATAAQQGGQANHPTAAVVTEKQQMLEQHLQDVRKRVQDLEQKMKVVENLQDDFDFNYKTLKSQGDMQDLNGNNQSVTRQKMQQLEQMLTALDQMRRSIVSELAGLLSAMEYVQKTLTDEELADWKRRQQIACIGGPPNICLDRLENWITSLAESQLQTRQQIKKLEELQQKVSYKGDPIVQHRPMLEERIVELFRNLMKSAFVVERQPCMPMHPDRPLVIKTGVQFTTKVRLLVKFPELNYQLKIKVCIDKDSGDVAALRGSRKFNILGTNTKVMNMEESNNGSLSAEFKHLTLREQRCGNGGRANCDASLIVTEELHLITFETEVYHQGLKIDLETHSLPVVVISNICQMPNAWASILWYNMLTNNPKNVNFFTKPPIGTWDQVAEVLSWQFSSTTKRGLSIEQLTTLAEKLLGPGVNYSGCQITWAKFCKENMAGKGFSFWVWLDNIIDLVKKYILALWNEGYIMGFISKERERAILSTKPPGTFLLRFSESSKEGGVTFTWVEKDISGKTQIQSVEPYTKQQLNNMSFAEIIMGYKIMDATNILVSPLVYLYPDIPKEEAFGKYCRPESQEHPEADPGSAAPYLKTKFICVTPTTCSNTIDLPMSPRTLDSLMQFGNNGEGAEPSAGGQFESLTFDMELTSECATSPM
Experimental: 1-1) Experiment on the Inhibition of STAT3 Activity
A human prostate cancer cell line (LNCaP stable cell line; plasmid pSTAT3-TA-luc), which contains a stably operating STAT3 promoter, was cultured in RPMI1640 medium (Cat No. 11875, Life Technologies) containing 10% fetal bovine serum (FBS) (Cat No. SH30396, Thermo Scientific) and 150 μg/mL G-418 solution (Cat No. 04 727 894 001, Roche). The reporter gene assay using LNCaP stable cell line was performed in RPMI1640 medium containing 3% DCC-FBS without G-418 solution. LNCaP stable cells were plated in two (2) white 96-well plates with 30,000 cells/50 μL in each well. The cells were cultured at 37° C., under 5% CO2 for 24 hours, and then treated with the compounds listed in Examples which were diluted in various concentrations. Subsequently, IL-6 was added to each well with a final concentration of 10 ng/mL. Upon completion of the treatment with the compounds and IL-6, the cells were cultured at 37° C., under 5% CO2 for 24 hours. The plates were observed under microscope and drug precipitation and particular findings were investigated and recorded.
The luciferase assay and the cell viability assay were performed respectively with one of the two plates. For the luciferase assay, the liquid media in the 96-well plate was removed, and then, 20 μL of passive cell lysis buffer was added to each well. After shaking the plate for 30 minutes, luciferase activities of each well were measured in a PHERAstar™ microplate reader (BMG LABTECH) using a luciferase assay system (Cat No. E1501, Promega). For the cell viability assay, the 96-well plate was placed at room temperature for 30 minutes, added with 20 μL/well of CellTiter-Glo solution (Cat No. G7573, Promega), and shaken for 10 minutes in order to measure cytotoxicity caused by the compounds listed in Examples with a PHERAstar™ microplate reader (BMG LABTECH). Wells without 0.1% DMSO and stimulation were used as a negative control and wells with 0.1% DMSO and stimulation were used as a positive control.
The results of evaluation on the inhibitory effect of the compounds listed in the Examples on the dimerization of STAT3 and STAT1 obtained via the STAT3 and STAT1 reporter gene assays are shown in Table 6 below.

CS(=O)(=O)C1CCOc2cc3sc(C(=O)Nc4cc(Cl)nc(Oc5cccc(C(F)(F)F)c5)c4)cc3cc21 (stereo not drawn) [Example 16, N-(2-chloro-6-(3-(trifluoromethyl)phenoxy)pyridin-4-yl)-4-(methylsulfonyl)-3,4-dihydro-2H-thieno[3,2-g]chromene-7-carboxamide]
IC50 (NCI-N87): 0.021 µM
IC50 (MDA-MB-468): 0.0039 µM
IC50 (STAT3): 0.0051 µM

CS(=O)(=O)C1CCOc2cc3sc(C(=O)Nc4cc(Cl)nc(Oc5ccc(C(F)(F)F)cc5)c4)cc3cc21 (stereo not drawn) [Example 17, N-(2-chloro-6-(4-(trifluoromethyl)phenoxy)pyridin-4-yl)-4-(methylsulfonyl)-3,4-dihydro-2H-thieno[3,2-g]chromene-7-carboxamide]
IC50 (NCI-N87): 0.011 µM
IC50 (MDA-MB-468): 0.0023 µM
IC50 (STAT3): 0.0039 µM

CS(=O)(=O)C1CCOc2cc3sc(C(=O)Nc4cc(Cl)nc(Oc5cc(Cl)cc(Cl)c5)c4)cc3cc21 (stereo not drawn) [Example 18, N-(2-chloro-6-(3,5-dichlorophenoxy)pyridin-4-yl)-4-(methylsulfonyl)-3,4-dihydro-2H-thieno[3,2-g]chromene-7-carboxamide]
IC50 (NCI-N87): 0.02 µM
IC50 (MDA-MB-468): 0.0043 µM
IC50 (STAT3): 0.015 µM

CS(=O)(=O)C1CCOc2cc3sc(C(=O)Nc4cc(Cl)nc(Oc5ccc(Cl)c(F)c5)c4)cc3cc21 (stereo not drawn) [Example 19, N-(2-chloro-6-(4-chloro-3-fluorophenoxy)pyridin-4-yl)-4-(methylsulfonyl)-3,4-dihydro-2H-thieno[3,2-g]chromene-7-carboxamide]
IC50 (NCI-N87): 0.0061 µM
IC50 (MDA-MB-468): 0.0025 µM
IC50 (STAT3): 0.0084 µM

Cc1cc(Oc2cc(NC(=O)c3cc4cc5c(cc4s3)OCCC5S(C)(=O)=O)cc(Cl)n2)ccc1Cl (stereo not drawn) [Example 20, N-(2-chloro-6-(4-chloro-3-methylphenoxy)pyridin-4-yl)-4-(methylsulfonyl)-3,4-dihydro-2H-thieno[3,2-g]chromene-7-carboxamide]
IC50 (NCI-N87): 0.0094 µM
IC50 (MDA-MB-468): 0.0024 µM
IC50 (STAT3): 0.01 µM

Cc1cc(Cl)ccc1Oc1cc(NC(=O)c2cc3cc4c(cc3s2)OCCC4S(C)(=O)=O)cc(Cl)n1 (stereo not drawn) [Example 21, N-(2-chloro-6-(4-chloro-2-methylphenoxy)pyridin-4-yl)-4-(methylsulfonyl)-3,4-dihydro-2H-thieno[3,2-g]chromene-7-carboxamide]
IC50 (NCI-N87): 0.018 µM
IC50 (MDA-MB-468): 0.0051 µM
IC50 (STAT3): 0.011 µM

COc1ccc(Oc2cc(NC(=O)c3cc4cc5c(cc4s3)OCCC5S(C)(=O)=O)cc(Cl)n2)cc1 (stereo not drawn) [Example 22, N-(2-chloro-6-(4-methoxyphenoxy)pyridin-4-yl)-4-(methylsulfonyl)-3,4-dihydro-2H-thieno[3,2-g]chromene-7-carboxamide]
IC50 (NCI-N87): 0.071 µM
IC50 (MDA-MB-468): 0.017 µM
IC50 (STAT3): 0.03 µM

CS(=O)(=O)C1CCOc2cc3sc(C(=O)Nc4cc(Cl)nc(Oc5ccc(Cl)cc5F)c4)cc3cc21 (stereo not drawn) [Example 23, N-(2-chloro-6-(4-chloro-2-fluorophenoxy)pyridin-4-yl)-4-(methylsulfonyl)-3,4-dihydro-2H-thieno[3,2-g]chromene-7-carboxamide]
IC50 (NCI-N87): 0.0056 µM
IC50 (MDA-MB-468): 0.0028 µM
IC50 (STAT3): 0.0063 µM

CS(=O)(=O)C1CCOc2cc3sc(C(=O)Nc4cc(Cl)nc(Oc5ccc(Cl)c(Cl)c5)c4)cc3cc21 (stereo not drawn) [Example 24, N-(2-chloro-6-(3,4-dichlorophenoxy)pyridin-4-yl)-4-(methylsulfonyl)-3,4-dihydro-2H-thieno[3,2-g]chromene-7-carboxamide]
IC50 (NCI-N87): 0.0038 µM
IC50 (MDA-MB-468): 0.0024 µM
IC50 (STAT3): 0.0062 µM

CS(=O)(=O)C1CCOc2cc3sc(C(=O)Nc4cc(Cl)nc(Oc5cccc(Cl)c5)c4)cc3cc21 (stereo not drawn) [Example 25, N-(2-chloro-6-(3-chlorophenoxy)pyridin-4-yl)-4-(methylsulfonyl)-3,4-dihydro-2H-thieno[3,2-g]chromene-7-carboxamide]
IC50 (NCI-N87): 0.01 µM
IC50 (MDA-MB-468): 0.0049 µM
IC50 (STAT3): 0.011 µM

CS(=O)(=O)C1CCOc2cc3sc(C(=O)Nc4cc(Cl)nc(Oc5ccc(F)cc5)c4)cc3cc21 (stereo not drawn) [Example 26, N-(2-chloro-6-(4-fluorophenoxy)pyridin-4-yl)-4-(methylsulfonyl)-3,4-dihydro-2H-thieno[3,2-g]chromene-7-carboxamide]
IC50 (NCI-N87): 0.0072 µM
IC50 (MDA-MB-468): 0.0046 µM
IC50 (STAT3): 0.0073 µM

CS(=O)(=O)C1CCOc2cc3sc(C(=O)Nc4cc(Cl)nc(Oc5ccc(F)c(Cl)c5)c4)cc3cc21 (stereo not drawn) [Example 27, N-(2-chloro-6-(3-chloro-4-fluorophenoxy)pyridin-4-yl)-4-(methylsulfonyl)-3,4-dihydro-2H-thieno[3,2-g]chromene-7-carboxamide]
IC50 (NCI-N87): 0.0049 µM
IC50 (MDA-MB-468): 0.0029 µM
IC50 (STAT3): 0.0078 µM

CS(=O)(=O)C1CCOc2cc3sc(C(=O)Nc4cc(Cl)nc(Oc5ccc(OC(F)(F)F)cc5)c4)cc3cc21 (stereo not drawn) [Example 28, N-(2-chloro-6-(4-(trifluoromethoxy)phenoxy)pyridin-4-yl)-4-(methylsulfonyl)-3,4-dihydro-2H-thieno[3,2-g]chromene-7-carboxamide]
IC50 (NCI-N87): 0.0056 µM
IC50 (MDA-MB-468): 0.002 µM
IC50 (STAT3): 0.0051 µM

CS(=O)(=O)C1CCOc2cc3sc(C(=O)Nc4cc(Cl)nc(Oc5cccc(OC(F)(F)F)c5)c4)cc3cc21 (stereo not drawn) [Example 29, N-(2-chloro-6-(3-(trifluoromethoxy)phenoxy)pyridin-4-yl)-4-(methylsulfonyl)-3,4-dihydro-2H-thieno[3,2-g]chromene-7-carboxamide]
IC50 (NCI-N87): 0.0046 µM
IC50 (MDA-MB-468): 0.0029 µM
IC50 (STAT3): 0.0059 µM

COc1cc(Cl)cc(Oc2cc(NC(=O)c3cc4cc5c(cc4s3)OCCC5S(C)(=O)=O)cc(Cl)n2)c1 (stereo not drawn) [Example 30, N-(2-chloro-6-(3-chloro-5-methoxyphenoxy)pyridin-4-yl)-4-(methylsulfonyl)-3,4-dihydro-2H-thieno[3,2-g]chromene-7-carboxamide]
IC50 (NCI-N87): 0.025 µM
IC50 (MDA-MB-468): 0.0085 µM
IC50 (STAT3): 0.02 µM

CS(=O)(=O)C1CCOc2cc3sc(C(=O)Nc4cc(Cl)nc(Oc5cc(F)cc(Cl)c5)c4)cc3cc21 (stereo not drawn) [Example 31, N-(2-chloro-6-(3-chloro-5-fluorophenoxy)pyridin-4-yl)-4-(methylsulfonyl)-3,4-dihydro-2H-thieno[3,2-g]chromene-7-carboxamide]
IC50 (NCI-N87): 0.009 µM
IC50 (MDA-MB-468): 0.0022 µM
IC50 (STAT3): 0.008 µM

COc1cc(F)cc(Oc2cc(NC(=O)c3cc4cc5c(cc4s3)OCCC5S(C)(=O)=O)cc(Cl)n2)c1 (stereo not drawn) [Example 32, N-(2-chloro-6-(3-fluoro-5-methoxyphenoxy)pyridin-4-yl)-4-(methylsulfonyl)-3,4-dihydro-2H-thieno[3,2-g]chromene-7-carboxamide]
IC50 (NCI-N87): 0.031 µM
IC50 (MDA-MB-468): 0.0089 µM
IC50 (STAT3): 0.016 µM

Cc1cccc(Oc2cc(NC(=O)c3cc4cc5c(cc4s3)OCCC5S(C)(=O)=O)cc(Cl)n2)c1 (stereo not drawn) [Example 33, N-(2-chloro-6-(m-tolyloxy)pyridin-4-yl)-4-(methylsulfonyl)-3,4-dihydro-2H-thieno[3,2-g]chromene-7-carboxamide]
IC50 (NCI-N87): 0.024 µM
IC50 (MDA-MB-468): 0.0093 µM
IC50 (STAT3): 0.0098 µM

CS(=O)(=O)C1CCOc2cc3sc(C(=O)Nc4cc(Cl)nc(Oc5ccc(F)c(F)c5)c4)cc3cc21 (stereo not drawn) [Example 34, N-(2-chloro-6-(3,4-difluorophenoxy)pyridin-4-yl)-4-(methylsulfonyl)-3,4-dihydro-2H-thieno[3,2-g]chromene-7-carboxamide]
IC50 (NCI-N87): 0.0092 µM
IC50 (MDA-MB-468): 0.0023 µM
IC50 (STAT3): 0.0064 µM
